Positions count from the first letter of the chain named. Peptide text beside a SMILES is read from it.
Experiments:
[1] = target: T1, mutant C140 receptor 35Arg (serine-35 replaced with arginine) (Mus musculus, UniProt P55086, S39R); assay: 45Ca release by Xenopus oocytes expressing mutant C140 receptor 35Arg; assay type: cell-based; conditions: 35Arg receptor
T1 construct: Site-directed mutagenesis was employed to construct mutant receptors in the pSG-5; expressed in transfected cells; host or cells: Xenopus laevis oocytes injected with capped cRNA
T1 sequence (P55086 32-399 S39R limits assumed): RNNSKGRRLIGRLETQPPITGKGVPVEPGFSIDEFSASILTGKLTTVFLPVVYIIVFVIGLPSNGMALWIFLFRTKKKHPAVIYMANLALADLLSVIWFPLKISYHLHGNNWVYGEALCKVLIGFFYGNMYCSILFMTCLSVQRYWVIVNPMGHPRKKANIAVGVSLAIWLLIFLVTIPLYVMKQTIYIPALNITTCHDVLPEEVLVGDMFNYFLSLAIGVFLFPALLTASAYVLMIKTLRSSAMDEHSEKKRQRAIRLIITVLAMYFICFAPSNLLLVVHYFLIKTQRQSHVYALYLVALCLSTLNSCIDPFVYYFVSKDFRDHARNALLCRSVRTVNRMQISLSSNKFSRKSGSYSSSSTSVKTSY
Text: (§1) Both native and mutant C140 receptors were produced in oocytes and activated with a peptide mimicking the new amino-terminus", or by the proteolytic enzyme trypsin (which cleaves the extracellular region). Native receptors were produced by cloning the coding region of the receptor gene, using the polymerase chain reaction, into the expression vector pSG-5 (Green, S. et al., Nucleic Acid Res (1988) 16:369). The orientation and integrity of the cloned coding region was verified by determining the nucleotide sequence with the Sanger chain-termination method. Site-directed mutagenesis was employed to construct mutant receptors in the pSG-5. […]
(§2) Oocytes from Xenopus laevis were harvested and prepared using published techniques (Coleman, A., in Hames, B. D., and Higgins, S. J., eds, Transcription and Translation: A Practical Approach, IRL Press, pp. 271-302; Williams, J. A., et al. Proc Natl Acad Sci USA (1988) 85:4939-4943]. To remove follicular cells, oocytes were incubated for 1.5 h with shaking in calcium-free Barth's containing 2 mg/ml each of collagenase 1A and hyaluronidase 1S. The oocytes were then washed five times in regular Barth's and incubated at 18° C. in Barth's medium containing 100 U/ml penicillin, 100 μg/ml streptomycin, and 2.5 mM sodium pyruvate. […] The harvested medium was analyzed by scintillation counting. […]

[2] = target: T2, mutant C140 receptor 35Pro (serine-35 replaced with proline) (Mus musculus, UniProt P55086, S39P); assay: 45Ca release by Xenopus oocytes expressing mutant C140 receptor 35Pro; assay type: cell-based; conditions: 35Pro receptor
T2 construct: Site-directed mutagenesis was employed to construct mutant receptors in the pSG-5; expressed in transfected cells; host or cells: Xenopus laevis oocytes injected with capped cRNA
T2 sequence (P55086 32-399 S39P limits assumed): T1 sequence (P55086 32-399 S39R limits assumed) with R8P
Text: as §1, §2

[3] = peptide at 100 μM, same oocytes after trypsin stimulation
[4] = trypsin at 300 pM, increase compared to water-injected oocytes

Fold increase in 45Ca [1, 4]	Fold increase in 45Ca [2, 4]	Molecule	Fold increase in 45Ca [1, 3]	Fold increase in 45Ca [2, 3]
		CC[C@H](C)[C@H](NC(=O)[C@H](CC(C)C)NC(=O)[C@@H](N)CO)C(=O)NCC(=O)N[C@@H](CCCNC(=N)N)C(=O)N[C@@H](CC(C)C)C(=O)O [SLIGRL] (H-SLIGRL-OH)	15 fold	23 fold
0 fold	0 fold	trypsin		
